Patent US20200399222A1, “PICOLINAMIDES AS FUNGICIDES” (Dow AgroSciences LLC, priority 2018, published 2020)
Read-outs that look alike come from different tables or passages of the source.

Tests used:
Format in all cases: in vivo
Phakopsora pachyrhizi = assay: Asian soybean rust (PHAKPA) disease control on soybean seedlings; conditions: High volume application at 25 ppm; for pest or weed control at 25 ppm: Phakopsora pachyrhizi
Procedure: Example C: Evaluation of Fungicidal Activity: Asian Soybean Rust (Phakopsora pachyrhizi; Bayer Code […]) Technical grades of materials were dissolved in acetone, which were then mixed with nine volumes of water containing 0.011% Tween 20. The fungicide solutions were applied onto soybean seedlings using an automated booth sprayer to run-off. All sprayed plants were allowed to air dry prior to further handling. Soybean plants (variety Williams 82) were grown in soil-less Metro mix, with one plant per pot. Two week old seedlings were used for testing. Plants were inoculated either 3 days prior to or 1 day after fungicide treatments. Plants were incubated for 24 h in a dark dew room at 22° C. and 100% relative humidity then transferred to a growth room at 23° C. for disease to develop. Disease severity was assessed on the sprayed leaves.

Zymoseptoria tritici = assay: Leaf blotch of wheat (SEPTTR) disease control on wheat seedlings; conditions: Low volume application, 121.5 g/ha
Procedure: Example A: Evaluation of Fungicidal Activity: Leaf Blotch of Wheat (Zymoseptoria tritici; Bayer Code […]) Technical grades of materials were dissolved in acetone, which were then mixed with nine volumes of water containing 110 ppm Triton X-100. The fungicide solutions were applied onto wheat seedlings using an automated booth sprayer to run-off. All sprayed plants were allowed to air dry prior to further handling. All fungicides were evaluated using the aforementioned method for their activity vs. all target diseases, unless stated otherwise. Wheat leaf blotch and brown rust activity were also evaluated using track spray applications, in which case the fungicides were formulated as EC formulations, containing 0.1% Trycol 5941 in the spray solutions. Wheat plants (variety Yuma) were grown from seed in a greenhouse in 50% mineral soil/50% soil-less Metro mix until the first leaf was fully emerged, with 7-10 seedlings per pot. These plants were inoculated with an aqueous spore suspension of Zymoseptoria tritici either prior to or after fungicide treatments. After inoculation the plants were kept in 100% relative humidity (one day in a dark dew chamber followed by two to three days in a lighted dew chamber at 20° C.) to permit spores to germinate and infect the leaf. The plants were then transferred to a greenhouse set at 20° C. for disease to develop. When disease symptoms were fully expressed on the 1st leaves of untreated plants, infection levels were assessed on a scale of 0 to 100 percent disease severity. Percent disease control was calculated using the ratio of disease severity on treated plants relative to untreated plants.

Puccinia triticina = assay: Wheat brown rust (PUCCRT) disease control on wheat seedlings; conditions: Low volume application, 121.5 g/ha
Procedure: Technical grades of materials were dissolved in acetone, which were then mixed with nine volumes of water containing 110 ppm Triton X-100. The fungicide solutions were applied onto wheat seedlings using an automated booth sprayer to run-off. All sprayed plants were allowed to air dry prior to further handling. All fungicides were evaluated using the aforementioned method for their activity vs. all target diseases, unless stated otherwise. Wheat leaf blotch and brown rust activity were also evaluated using track spray applications, in which case the fungicides were formulated as EC formulations, containing 0.1% Trycol 5941 in the spray solutions. Example B: Evaluation of Fungicidal Activity: Wheat Brown Rust (Puccinia triticina; Synonym: Puccinia recondita f. sp. tritici; Bayer Code PUCCRT) Wheat plants (variety Yuma) were grown from seed in a greenhouse in 50% mineral soil/50% soil-less Metro mix until the first leaf was fully emerged, with 7-10 seedlings per pot. These plants were inoculated with an aqueous spore suspension of Puccinia triticina either prior to or after fungicide treatments. After inoculation the plants were kept in a dark dew room at 22° C. with 100% relative humidity overnight to permit spores to germinate and infect the leaf. The plants were then transferred to a greenhouse set at 24° C. for disease to develop. Fungicide formulation, application and disease assessment followed the procedures as described in the Example A.

[1] = 24 h, 1 day protectant, read-out: PHAKPA 1DP (1 Day Protectant) disease control
[2] = 72 h, 3 day curative, read-out: PHAKPA 3DC (3 Day Curative) disease control
[3] = 24 h, 1 Day Protectant, read-out: SEPTTR disease control rating, 1DP
[4] = 72 h, 3 Day Curative, read-out: SEPTTR disease control rating, 3DC
[5] = 24 h, 1 Day Protectant, read-out: PUCCRT disease control rating, 1DP
[6] = 72 h, 3 Day Curative, read-out: PUCCRT disease control rating, 3DC

| SMILES | pest or weed control at 25 ppm (Phakopsora pachyrhizi; [1]) [%] | pest or weed control at 25 ppm (Phakopsora pachyrhizi; [2]) [%] | pest or weed control at 121.5 g/ha (Zymoseptoria tritici; [3]) [%] | pest or weed control at 121.5 g/ha (Zymoseptoria tritici; [4]) [%] | pest or weed control at 121.5 g/ha (Puccinia triticina; [5]) [%] | pest or weed control at 121.5 g/ha (Puccinia triticina; [6]) [%] | PHAKPA 1DP (1 Day Protectant) disease control (Phakopsora pachyrhizi; 1 day protectant) | PHAKPA 3DC (3 Day Curative) disease control (Phakopsora pachyrhizi; 3 day curative) |
| --- | --- | --- | --- | --- | --- | --- | --- | --- |
| COc1cc(F)ccc1[C@@H](C)[C@@H](C)OC(=O)[C@H](C)n1c(=O)oc2c(OC)ccnc2c1=O [Example 262] | < 80 | < 80 | < 80 | < 80 | < 0 | < 0 |  |  |
| COc1ccnc(C(=O)N[C@@H](C)C(=O)O[C@H](C)[C@H](C)c2c(C)cccc2C)c1OC(C)=O [Example 253] | > 80 | > 80 | < 80 | < 80 | > 80 | < 80 |  |  |
| COc1ccnc(C(=O)N[C@@H](C)C(=O)OC(C)C(C)c2c(C)cc(F)cc2C)c1OC(C)=O (some centres unmarked) [Example 256] | > 80 | > 80 | > 80 | > 80 | > 80 | > 80 |  |  |
| COc1ccnc(C(=O)N[C@@H](C)C(=O)O[C@@H](C)[C@@H](C)c2ccc(C)cc2C)c1OC(C)=O [Example 177] | > 80 | > 80 | > 80 | > 80 | > 80 | > 80 |  |  |
| COc1ccnc(C(=O)N[C@@H](C)C(=O)O[C@H](C)[C@H](C)c2ccc(F)cc2C(F)(F)F)c1OC(=O)C(C)C [Example 240] | < 80 | < 80 | < 80 | < 80 | < 0 | < 0 |  |  |
| COc1ccc([C@H](C)[C@H](C)OC(=O)CNC(=O)c2nccc(OC)c2OC(=O)C(C)C)c(C)c1 [Example 224] |  |  |  |  |  |  | B (≤80) | D (≤0) |
| COc1ccnc(C(=O)N[C@H](C(=O)O[C@@H](C)[C@@H](C)c2ccc(F)cc2C)C(C)C)c1OC(=O)C(C)C [Example 205] | > 80 |  |  |  |  |  |  | B (≤80) |
| COc1ccnc(C(=O)N[C@H](C(=O)O[C@H](C)[C@H](C)c2ccc(F)cc2)C(C)C)c1OC(C)=O [Example 192] | < 80 | < 0 |  |  |  |  |  |  |
| COc1ccnc(C(=O)N[C@H](C)C(=O)O[C@@H](C)[C@H](C)c2ccccc2C)c1OC(C)=O [Example 194] | < 0 | < 0 |  |  |  |  |  |  |
| COc1ccnc(C(=O)N[C@@H](C)C(=O)O[C@@H](C)[C@@H](C)c2ccccc2C)c1OCOC(=O)C(C)C [Example 284] | > 80 | > 80 |  |  |  |  |  |  |
| COc1ccc([C@H](C)[C@H](C)OC(=O)[C@H](C)NC(=O)c2nccc(OC)c2OC(=O)C(C)C)c(C)c1 [Example 230] |  |  |  |  |  |  | D (≤0) | D (≤0) |
| COc1ccnc(C(=O)N[C@H](C(=O)O[C@H](C)[C@@H](C)c2ccccc2C)C(C)C)c1OC(=O)C(C)C [Example 215] | < 80 | < 80 |  |  |  |  |  |  |
